Data: patent US20150080329A1, “PHARMACEUTICAL COMPOSITIONS COMPRISING DHA, EPA, AND/OR GLA AND AN ANTIBIOTIC AGENT AND METHODS OF USE THEREOF” (priority 2013, published 2015)
In brackets after ≈: the same amount, converted by molar mass. Read-outs that look alike come from different tables or passages of the source.

Columns and labels:
Format in all cases: cell-based
[1] = tested on: P. acnes NCTC737; assay: MIC and MBC determination by broth micro-dilution against P. acnes
[2] = tested on: S. aureus ATCC43300; assay: MIC and MBC determination by broth micro-dilution against S. aureus
[3] = tested on: S. aureus; assay: Checkerboard assay of interactions between LC-PUFAs and topical antimicrobial agents; conditions: n = 2, mean ± one standard deviation
Description: Checkerboard assays were performed according to the standard protocol published by the American Society for Microbiology to investigate the existence of synergistic antimicrobial interactions between the three LC-PUFAs and two anti-acne agents (BPO and SA) against P. acnes. Further checkerboards were performed against S. aureus for BPO, SA and four antibiotics used to treat topical staphylococcal infections (FUS, MUP, NEO and POL) with these agents being assessed separately against each of the three LC-PUFAs. Doubling dilutions of each compound were prepared in TSA or SBB and dispensed to 96-well plates in the standard checkerboard pattern. […] Control wells were dispensed with medium supplemented with the greatest concentration of solvent used in any well, while negative control wells contained just medium. Inoculums were prepared to 1×10^7 CFU/mL as above. Each well (except for negative controls) was inoculated with 5 μL of bacterial suspension. Plates were incubated as for MIC determinations above and then the presence of bacterial growth was determined for each well according to the clarity of the medium and/or the presence of suspended colonies. The FIC for each well was determined for each interaction and the lowest FICs from duplicate checkerboard assays were used to calculate a mean value that permitted interpretation of the nature of interaction between each combination of compounds Using the pre-determined MIC values, checkerboard assays were performed to detect the interactions between the LC-PUFAs and the clinical antimicrobial drugs against the growth of S. aureus. The lowest fractional inhibitory concentration (FIC) on duplicate checkerboards was used to calculate a mean FIC for each interaction, and a mean FIC ≦0.5 was defined as synergy while a mean FIC ≧4 was defined as antagonism. Against S. aureus, none of the combinations gave a mean FIC ≧4, indicating no antagonism of efficacy between the LC-PUFAs and the clinical antimicrobial agents (Table 4). […] (Table 4)

[4] = tested on: ten diverse isolates of S. aureus; assay: MIC50 and MBC50 against ten diverse isolates of S. aureus; conditions: Staphylococcus aureus; for MIC50: concentration required to inhibit 50% of ten S. aureus isolates; for MBC: concentration required to kill 50% of ten S. aureus isolates
[5] = P. acnes, clinical antimicrobial agents (Table 3)
[6] = S. aureus, clinical antimicrobial agents (Table 3)
[7] = Cutibacterium acnes, P. acnes NCTC737, kills ≧99.9% of initial inoculum, LC-PUFAs (Table 1), read-out: MBC
[8] = Cutibacterium acnes, P. acnes NCTC737, supplemented brucella broth, 48 h, LC-PUFAs (Table 1), read-out: MIC
[9] = Staphylococcus aureus, S. aureus ATCC43300, Mueller-Hinton broth, 18-20 h, LC-PUFAs (Table 1), read-out: MIC
[10] = Staphylococcus aureus, S. aureus ATCC43300, kills ≧99.9% of initial inoculum, LC-PUFAs (Table 1), read-out: MBC

Row | Compound | MIC [2, 6] | MIC [1, 8] | MIC [2, 9] | MIC50 [4] | MBC [2, 6] | ΣFIC ([3]; in combination with DHA) | ΣFIC ([3]; in combination with EPA) | ΣFIC ([3]; in combination with GLA) | MBC [1, 7] | MBC [2, 10] | MBC [4] | further results
1 | O=C(OOC(=O)c1ccccc1)c1ccccc1 [BPO, benzoyl peroxide] | – | – | – | – | – | 2.00 ± 0.00 | 1.00 ± 0.00 | 0.56 ± 0.09 | – | – | – | MBC ([1]; Cutibacterium acnes, NCTC737, P. acnes, clinical antimicrobial agents (Table 3), read-out: MBC): > 4100 µg/mL; MIC ([1]; Cutibacterium acnes, NCTC737, P. acnes, clinical antimicrobial agents (Table 3), read-out: MIC): 64 µg/mL (≈ 264 µM); MBC ([2]; Staphylococcus aureus, ATCC43300, S. aureus, clinical antimicrobial agents (Table 3), read-out: MBC): 512 µg/mL (≈ 2110 µM); MIC ([2]; Staphylococcus aureus, ATCC43300, S. aureus, clinical antimicrobial agents (Table 3), read-out: MIC): 512 µg/mL (≈ 2110 µM)
2 | CC/C=C\C/C=C\C/C=C\C/C=C\C/C=C\CCCC(=O)O [EPA, all-cis-5,8,11,14,17-eicosapentaenoic acid] | – | 128 µg/mL (≈ 423 µM) | 128 µg/mL (≈ 423 µM) | 256 µg/mL (≈ 846 µM) | – | – | – | – | > 4100 µg/mL | 256 µg/mL (≈ 846 µM) | 256 µg/mL (≈ 846 µM) | –
3 | CC(=O)O[C@H]1C[C@@]2(C)[C@@H](C[C@@H](O)[C@H]3[C@@]4(C)CC[C@@H](O)[C@@H](C)[C@@H]4CC[C@@]32C)/C1=C(\CCC=C(C)C)C(=O)O [FUS] | 0.25 µg/mL (≈ 0.484 µM) | – | – | – | 8 µg/mL (≈ 15.5 µM) | 2.00 ± 0.00 | 1.13 ± 0.18 | 1.50 ± 0.71 | – | – | – | –
4 | polymyxin B | 16 µg/mL | – | – | – | 128 µg/mL | 2.00 ± 0.00 | 2.00 ± 0.00 | 1.06 ± 0.62 | – | – | – | –
5 | C/C(=C\C(=O)OCCCCCCCCC(=O)O)C[C@@H]1OC[C@H](C[C@@H]2O[C@H]2[C@@H](C)[C@H](C)O)[C@@H](O)[C@H]1O [MUP] | 0.25 µg/mL (≈ 0.499 µM) | – | – | – | 16 µg/mL (≈ 32 µM) | 1.50 ± 0.00 | 2.00 ± 0.00 | 2.25 ± 0.35 | – | – | – | –

The next lines start with results.

Row | MIC [2, 6] | MIC [1, 8] | MIC [2, 9] | MIC50 [4] | Compound | MBC [2, 6] | ΣFIC ([3]; in combination with DHA) | ΣFIC ([3]; in combination with EPA) | ΣFIC ([3]; in combination with GLA) | MBC [1, 7] | MBC [2, 10] | MBC [4] | further results
6 | 1024 µg/mL (≈ 7410 µM) | – | – | – | O=C(O)c1ccccc1O [SA] | 2048 µg/mL (≈ 14800 µM) | 1.25 ± 0.35 | 0.88 ± 0.18 | 0.88 ± 0.18 | – | – | – | MBC [1, 5]: >4096 µg/mL; MIC [1, 5]: 64 µg/mL (≈ 463 µM)
7 | – | 64 µg/mL (≈ 230 µM) | 512 µg/mL (≈ 1840 µM) | 512 µg/mL (≈ 1840 µM) | CCCCC/C=C\C/C=C\C/C=C\CCCCC(=O)O [GLA, all-cis-6,9,12-octadecatrienoic acid] | – | – | – | – | > 4100 µg/mL | 512 µg/mL (≈ 1840 µM) | 512 µg/mL (≈ 1840 µM) | –
8 | 32 µg/mL (≈ 52.1 µM) | – | – | – | NC[C@@H]1O[C@H](O[C@H]2[C@@H](O)[C@H](O[C@@H]3[C@@H](O)[C@H](N)C[C@H](N)[C@H]3O[C@H]3O[C@H](CN)[C@@H](O)[C@H](O)[C@H]3N)O[C@@H]2CO)[C@H](N)[C@@H](O)[C@@H]1O [NEO, neomycin] | 128 µg/mL (≈ 208 µM) | 0.56 ± 0.09 | 0.38 ± 0.00 | 0.19 ± 0.00 | – | – | – | –
9 | – | 32 µg/mL (≈ 97.4 µM) | 128 µg/mL (≈ 390 µM) | 128 µg/mL (≈ 390 µM) | CC/C=C\C/C=C\C/C=C\C/C=C\C/C=C\C/C=C\CCC(=O)O [DHA, (4Z,7Z,10Z,13Z,16Z,19Z)-docosa-4,7,10,13,16,19-hexaenoic acid] | – | – | – | – | > 4100 µg/mL | 128 µg/mL (≈ 390 µM) | 256 µg/mL (≈ 779 µM) | –
